Results as given in patent US5420131A, “Cyanomethylpyridine derivatives” (J. Uriach & Cia, S.A., priority 1993, dated 1995).

Columns and labels:
[1] = tested on: hypotensive effect induced by PAF in normotense rats; test: Inhibition of the hypotensive effect induced by PAF in normotense rats; type: in vivo, male Sprage Dawley rats; details: Rattus norvegicus, iv, 0.05 h; i.v., test compound via femoral vein 3 min. before PAF 0.5 mcg/Kg i.v.; anaesthetized rats; read-out: ID50 (inhibition of PAF-induced hypotension)
Description: Inhibition of the hypotensive effect induced by PAF in normotense rats.
Male Sprage Dawley rats (b.w. 180-220 g) anaesthetized with sodium pentobarbital (50 mg/Kg, i.p. 1 mL/100 g) are used. In order to measure the arterial pressure, a polyethylene catheter is introduced into the carotid artery. The arterial pressure is recorded with the help of a transducer coupled to a R611 Beckman polygraph. The test compounds are administered through the femoral vein 3 min. before PAF injection (0.5 mcg/Kg, i.v.). Control animals receive only the vehicle.

[2] = tested on: platelet aggregation induced by PAF; test: Inhibition of platelet aggregation induced by PAF (rabbit platelet rich plasma, Born nephelometric technique); type: cell-based, male New Zealand albino rabbits; details: Oryctolagus cuniculus, rabbit PRP, 3×10^5 platelets/mm^3, PAF (C18) 15 nM
Description: Inhibition of platelet aggregation induced by PAF.
Blood is obtained by cardiac puncture of male New Zealand albino rabbits (b.w. 2-2.5 Kg) and coagulation is prevented by adding 1 part of 3.16% sodium citrate dihydrate in 9 parts of blood. Platelet rich plasma (PRP) is prepared by centrifuging the blood at 250×g for 10 min. at 4° C. and then it is diluted with platelet poor plasma (PPP) obtained by further centrifuging at 3000×g for 10 min. The platelet count is adjusted to 3×10^5 /mm^3. Platelet aggregation induced by PAF (C18, prepared in our laboratory) (15 nM) is determined by the Born nephelometric technique (J. Physiol., 1962, 162, 67) using an aggregometer Chrono-log 500. The activities of the inhibitors are expressed as the IC50 value, that is to say the concentration of the drug needed to inhibit platelet aggregation by 50%.

| IC50 [2] [nM] | Compound | ED50 [1] [mg/kg] |
| --- | --- | --- |
| 550 | N#CC(c1cccnc1)C1CCN(C(=O)[C@H](NC(=O)Cc2ccc(OCc3ccc4ccccc4n3)cc2)c2ccccc2)CC1 (stereo partly drawn) [Compound 10, 1-[N-[p-(2-quinolylmethoxy)phenylacetyl]-D-2-phenylglycinyl]-4-(3-pyridylcyanomethyl)piperidine] | 0.12 |
| 1800 | Cc1ncccc1C(C#N)N1CCN(C(=O)CNC(c2ccccc2)c2ccc(OCc3ccc4ccccc4n3)cc2)CC1 (stereo not drawn) [Compound 2] | 0.057 |
| 680 | Cc1ncccc1C(C#N)N1CCN(C(=O)CC(NC(=O)c2ccc(OCc3ccc4ccccc4n3)cc2)c2ccccc2)CC1 (stereo not drawn) [Compound 5, 1-[3-[N-[p-(2-quinolylmethoxy)benzoyl]]amino-3-phenylpropionyl]-4-[(2-methyl-3-pyridyl)cyanomethyl]piperazine] | 0.21 |
| 660 | N#CC(c1cccnc1)C1CCN(C(=O)[C@H](NC(=O)c2cccc(OCc3ccc4ccccc4n3)c2)c2ccccc2)CC1 (stereo partly drawn) [Compound 13, 1-[N-[3-(2-quinolylmethoxy)benzoyl]-D-2-phenylglycinyl]-4-(3-pyridylcyanomethyl)piperidine] | 0.21 |
| 80 | Cc1ncccc1C(C#N)N1CCN(C(=O)CC(NC(=O)Cc2ccc(OCc3ccc4ccccc4n3)cc2)c2ccccc2)CC1 (stereo not drawn) [Compound 3, 1-[3-[N-[p-(2-quinolylmethoxy)phenylacetyl]]amino-3-phenylpropionyl]-4-[(2-methyl-3-pyridiyl)cyanomethyl]piperazine] | 0.036 |
| 740 | Cc1ncccc1C(C#N)N1CCN(C(=O)CC(NC(=O)c2cccc(OCc3ccc4ccccc4n3)c2)c2ccccc2)CC1 (stereo not drawn) [Compound 6, 1-[3-[N-[3-(2-quinolylmethoxy)benzoyl]]amino-3-phenylpropionyl]-4-[(2-methyl-3-pyridyl)cyanomethyl]piperazine] | 0.16 |
| 12 | Cc1ncccc1C(C#N)N1CCN(C(=O)CC(NC(=O)Cc2cccc(OCc3ccc4ccccc4n3)c2)c2ccccc2)CC1 (stereo not drawn) [Compound 4, 1-[3-[N-[3-(2-quinolylmethoxy)phenylacetyl]]amino-3-phenylpropionyl]-4-[(2-methyl-3-pyridyl)cyanomethyl]piperazine] | 0.041 |
| 55 | N#CC(c1cccnc1)C1CCN(C(=O)CC(NC(=O)c2ccc(OCc3ccc4ccccc4n3)cc2)c2ccccc2)CC1 (stereo not drawn) [Compound 7, 1-[3-[N-[p-(2-quinolylmethoxy)benzoyl]]amino-3-phenylpropionyl]-4-(3-pyridylcyanomethyl)piperidine] | 0.25 |

| Compound | IC50 [2] [nM] | ED50 [1] [mg/kg] |
| --- | --- | --- |
| Cc1ncccc1C(C#N)N1CCN(C(=O)Cc2ccc(OCc3ccc4ccccc4n3)cc2)CC1 (stereo not drawn) [Compound 1, 1-[p-(2-Quinolylmethoxy)phenylacetyl]-4-[(2-methyl-3-pyridyl)cyanomethyl]piperazine] | 6700 | 0.69 |
